Test results taken from article PMC2787625, “A Neuronal Acetylcholine Receptor Regulates the Balance of Muscle Excitation and Inhibition in Caenorhabditis elegans” (PLoS Biology, 2009).
Read-outs that look alike come from different tables or passages of the source.

Key:
[1] = tested on: ACR-2R (ACR-2-containing acetylcholine receptor: UNC-38, UNC-63, ACR-12, ACR-2, ACR-3); conditions: agonist; 1 mM external CaCl2; 500 µM and 1 mM points excluded from fit (open-channel block)
[2] = tested on: ACR-2R (ACR-2-containing acetylcholine receptor: UNC-38, UNC-63, ACR-12, ACR-2, ACR-3); conditions: agonist; 1 mM external CaCl2; 500 µM and 1 mM points excluded from fit (open-channel block); n2420 gain-of-function subunit ACR-2(V13′M)

CC(=O)OCC[N+](C)(C)C [acetylcholine]
EC50 [1]: 14.1 ± 1.2 µM | EC50 [2]: 17.8 ± 1.4 µM
